Test results: US20050118290A1, “Compositions and method for treatment of steroid/nuclear receptor-mediated diseases” (University of Singapore, priority 2003, published 2005)

What was measured:
[1] = target: T1, human androgen receptor (Homo sapiens, UniProt P10275); experiment: AR (ARE)2-Luc luciferase reporter gene assay in HeLa cells; type: cell-based
T1 construct: expressed in transfected cells; host or cells: HeLa
T1 sequence (P10275 1-920): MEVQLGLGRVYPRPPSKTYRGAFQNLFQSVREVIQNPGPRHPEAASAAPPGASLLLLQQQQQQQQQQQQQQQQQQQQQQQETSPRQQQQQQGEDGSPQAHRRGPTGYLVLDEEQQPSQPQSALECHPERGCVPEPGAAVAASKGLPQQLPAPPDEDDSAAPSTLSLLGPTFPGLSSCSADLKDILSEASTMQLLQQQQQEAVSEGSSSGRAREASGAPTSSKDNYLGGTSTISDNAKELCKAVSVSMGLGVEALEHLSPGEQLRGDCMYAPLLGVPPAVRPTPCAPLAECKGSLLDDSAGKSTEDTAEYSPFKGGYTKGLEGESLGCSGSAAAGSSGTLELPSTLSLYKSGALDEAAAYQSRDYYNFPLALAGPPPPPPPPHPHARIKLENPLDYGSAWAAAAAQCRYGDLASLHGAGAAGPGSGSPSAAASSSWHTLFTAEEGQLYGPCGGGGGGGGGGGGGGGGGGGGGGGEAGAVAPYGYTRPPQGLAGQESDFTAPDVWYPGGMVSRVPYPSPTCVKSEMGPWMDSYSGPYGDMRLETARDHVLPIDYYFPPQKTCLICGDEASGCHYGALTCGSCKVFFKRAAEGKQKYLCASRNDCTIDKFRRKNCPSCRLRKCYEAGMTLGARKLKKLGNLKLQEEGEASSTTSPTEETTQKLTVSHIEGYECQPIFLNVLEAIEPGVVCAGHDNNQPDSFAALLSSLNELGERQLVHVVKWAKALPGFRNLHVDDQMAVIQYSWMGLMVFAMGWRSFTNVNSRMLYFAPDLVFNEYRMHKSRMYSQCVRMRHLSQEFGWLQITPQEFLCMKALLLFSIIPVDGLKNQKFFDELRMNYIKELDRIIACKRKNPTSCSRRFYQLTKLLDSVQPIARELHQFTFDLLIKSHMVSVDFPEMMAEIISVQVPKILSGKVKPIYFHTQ
Procedure: The capacity of HQ extract to activate other steroid receptors, namely AR, PR, GR, ERα and ERβ was examined. […] The (ARE)2-Luc plasmid consist of two repeats of Androgen Response Element (ARE) cloned upstream of the Luciferase Reporter gene in a pGL3-Basic vector (Promega).
AR, PR, GR and ERα and […] were determined by comparing luciferase activity in test cells with control cells exposed to vehicle (i.e., ethanol or methanol) only, analogous to the determination of PPAR activity as described in the previous examples.

[2] = target: T2, PPARα (Homo sapiens, UniProt Q07869); experiment: Chimeric Gal4DBD-PPARαLBD receptor / UASg-luciferase reporter gene assay in HeLa cells; type: cell-based
T2 construct: expressed in transfected cells; host or cells: HeLa
T2 sequence (Q07869 239-466 limits assumed): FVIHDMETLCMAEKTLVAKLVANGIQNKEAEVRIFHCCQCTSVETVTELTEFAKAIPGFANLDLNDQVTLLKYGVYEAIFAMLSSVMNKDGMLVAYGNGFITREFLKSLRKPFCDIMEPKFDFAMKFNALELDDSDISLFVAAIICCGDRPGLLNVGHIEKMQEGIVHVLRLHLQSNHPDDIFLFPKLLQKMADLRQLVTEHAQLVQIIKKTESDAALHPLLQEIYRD
From the text: In an example of such a reporter gene assay, a plasmid containing chimeric Ga14DBD-PPARLBD receptor cDNA was constructed by excising the ligand binding domain (LBD) of full length PPARγ and PPARα and ligating the resulting fragments in frame to the Ga14-DNA binding domain (DBD) of Saccharomyces cerevisiae in a pM vector (Clontech). Specifically, to construct Ga14DBD-PPARγLBD plasmid, pSG5 expression vector (Stratagene) containing full length PPARγ was excised with Rsa I and blunt ligated to Hind III site of pMGa14DBD expression plasmid (Clontech). To construct Ga14DBD-PPARαLBD plasmid, pSG5 expression vector (Stratagene) containing full length PPARα was excised with BstU I and BamH I and blunt-end ligated in frame to BamH I site of pMGa14DBD expression plasmid (Clontech). […] Ga14 DBD binds very strongly to the exogenous UASg promoter, thereby giving rise to a sensitive and specific assay. To measure PPARγ and PPARα agonist activity, HeLa cells were grown in 24-well microtiter plates and then transiently co-transfected with the two plasmids (chimeric PPAR receptor and UASg reporter gene) using Lipofectamine (Invitrogen). […] Concurrently, cells exposed to known PPAR ligands served as positive controls. Replicate wells, exposed to the vehicle solvent (i.e., ethanol or methanol) in which herbal extracts were dissolved, were used as negative controls. After the 40 hr incubation period, cells were rinsed with phosphate buffered saline (PBS), lysis buffer was added, and cell lysates were collected for measurement of luciferase activity using a luminometer. […] All data points are in triplicate. The data points represent the mean of triplicate wells. Luciferase activity in such an assay accurately reflects the activity of any ligands on PPARγ or PPARα.

COc1ccc(-c2coc3cc(O)ccc3c2=O)cc1O [calycosin, 3′,7-Dihydroxy-4′-methoxyisoflavone]
Luciferase activity (Fold over vehicle ± SE) AR/Dihydrotestosterone (1 × 10^−9M) ([1]; calycosin 3 ×10^−6 g/mL): 1997 ± 96.1 Fold
Luciferase activity (Fold over vehicle ± SE) AR/Dihydrotestosterone (1 × 10^−9M) ([1]; calycosin 10 ×10^−6 g/mL): 4080 ± 5.67 Fold
Luciferase activity (Fold over vehicle ± SE) AR/Dihydrotestosterone (1 × 10^−9M) ([1]; calycosin 30 ×10^−6 g/mL): 4502 ± 995 Fold
increase of the activity of maximal doses of AR agonist ([1]; with dihydrotestosterone 1×10^−9M): 5.8 fold
Luciferase activity (Fold over vehicle ± SE) PPARα/WY14643 (30 × 10^−6M) ([2]; calycosin 3 ×10^−6 g/mL): 197 ± 20.6 Fold
Luciferase activity (Fold over vehicle ± SE) PPARα/WY14643 (30 × 10^−6M) ([2]; calycosin 10 ×10^−6 g/mL): 257 ± 8.85 Fold
Luciferase activity (Fold over vehicle ± SE) PPARα/WY14643 (30 × 10^−6M) ([2]; calycosin 30 ×10^−6 g/mL): 294 ± 39.2 Fold
increase of the activity of maximal doses of PPARα agonist ([2]; with WY14643 30×10^−6M): 1.8 fold

O=c1c(-c2ccc(O)cc2)coc2cc(O)ccc12 [daidzein]
Luciferase activity (Fold over vehicle ± SE) AR/Dihydrotestosterone (1 × 10^−9M) ([1]; daidzein 5 ×10^−6 g/mL): 1703 ± 154 Fold
Luciferase activity (Fold over vehicle ± SE) AR/Dihydrotestosterone (1 × 10^−9M) ([1]; daidzein 10 ×10^−6 g/mL): 1684 ± 146 Fold
Luciferase activity (Fold over vehicle ± SE) AR/Dihydrotestosterone (1 × 10^−9M) ([1]; daidzein 20 ×10^−6 g/mL): 1547 ± 257 Fold
PPARα activity comparable to % maximal activity of W14643 ([2]; 10×10^−6 g/ml): ~73%
maximal fold PPARα activity ([2]; 10×10^−6 g/ml): 8 fold
Luciferase activity (Fold over vehicle ± SE) PPARα/WY14643 (30 × 10^−6M) ([2]; daidzein 5 ×10^−6 g/mL): 58.2 ± 14.9 Fold
Luciferase activity (Fold over vehicle ± SE) PPARα/WY14643 (30 × 10^−6M) ([2]; daidzein 10 ×10^−6 g/mL): 71.3 ± 9.90 Fold
Luciferase activity (Fold over vehicle ± SE) PPARα/WY14643 (30 × 10^−6M) ([2]; daidzein 20 ×10^−6 g/mL): 53.4 ± 13.3 Fold
